# Results taken from the supplement of paper PMC10307832.
# Compound: CC(C)N(CCCNC(=O)Nc1ccc(C(C)(C)C)cc1)C[C@H]1O[C@@H](n2ccc3c(N)ncnc32)[C@H](O)[C@@H]1O + CC1(C)CCC(c2ccc(Cl)cc2)=C(CN2CCN(c3ccc(C(=O)NS(=O)(=O)c4ccc(N[C@H](CCN5CCOCC5)CSc5ccccc5)c(S(=O)(=O)C(F)(F)F)c4)cc3)CC2)C1 [Navitoclax] (partner 0.5 µM)
# Test: relative viability (nuclei count vs DMSO), 5 days (fraction); higher = more cells survive
# Details: first compound 8 µM
# In short: (§1)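 Cells from lung cancer lines were seeded into 1536-well plates and, one day later, dosed by pin tool. Treatments were either a single drug or a fixed dose of an anchor drug with five library-drug doses (not always all listed) in √10 steps. After 5 days, nuclei were stained in a one-step fixation (final 0.05% Triton X-100, 1% formaldehyde, 1 ug/ml Hoechst) and counted on 4× images, and relative viability is the treated-to-vehicle nuclei ratio, as the median of duplicate plates.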
row,Cell Line,relative viability
1,NCI-H727,0.506

# Compound: CC(C)N(CCCNC(=O)Nc1ccc(C(C)(C)C)cc1)C[C@H]1O[C@@H](n2ccc3c(N)ncnc32)[C@H](O)[C@@H]1O + COc1cc2c(Oc3ccc(NC(=O)C4(C(=O)Nc5ccc(F)cc5)CC4)cc3F)ccnc2cc1OCCCN1CCOCC1 [Foretinib] (partner 0.25 µM)
# Test: as above
# Details: first compound 0.08 µM
# In short: as §1
row,Cell Line,relative viability
1,NCI-H2342,0.931
2,NCI-H1623,0.836
3,PC-14,0.912
4,NCI-H1650,1.12
5,EBC-1,0.108
6,NCI-H1703,0.294
7,NCI-H2009,1.26
8,NCI-H1993,0.755
9,NCI-H520,0.685
10,PC-3 [JPC-3],1.05
11,LCLC-103H,0.704
12,NCI-H647,1.23
13,NCI-H2228,0.865
14,EMC-BAC-2,0.975
15,NCI-H2087,1.1
16,Calu-6,0.847
17,HCC-366,0.89

row,Cell Line,relative viability
1,NCI-H1666,0.976
2,NCI-H650,0.966
3,LK-2,1.36
4,NCI-H2126,1.18
5,SK-MES-1,0.792
6,H3255,0.92
7,COR-L23,0.843
8,IA-LM,1.01
9,A549,0.939
10,SW 900,0.737
11,NCI-H1299,1.05
12,NCI-H661,1.08
13,NCI-H1563,0.952
14,ABC-1,0.92
15,NCI-H358,0.548
16,NCI-H727,0.872

# Same assay, conditions: first compound 0.253 µM
row,Cell Line,relative viability
1,NCI-H2342,0.9
2,NCI-H1623,0.952
3,PC-14,0.944
4,NCI-H1650,0.939
5,EBC-1,0.098
6,NCI-H1703,0.33
7,NCI-H2009,1.19
8,NCI-H520,0.878
9,PC-3 [JPC-3],1.15
10,LCLC-103H,0.744
11,NCI-H647,1.27
12,NCI-H2228,0.895
13,EMC-BAC-2,0.98
14,NCI-H2087,1.32
15,Calu-6,0.872
16,HCC-366,0.939

row,Cell Line,relative viability
1,NCI-H1666,0.949
2,NCI-H650,1.03
3,LK-2,0.816
4,NCI-H2126,1.04
5,SK-MES-1,0.848
6,H3255,0.881
7,COR-L23,1.02
8,IA-LM,1.28
9,A549,1.06
10,SW 900,0.893
11,NCI-H1299,1.08
12,NCI-H661,1.13
13,NCI-H1563,0.975
14,ABC-1,1
15,NCI-H358,0.63
16,NCI-H727,0.891

# Same assay, conditions: first compound 0.8 µM
row,Cell Line,relative viability
1,NCI-H2342,0.9
2,NCI-H1623,0.795
3,PC-14,0.896
4,EBC-1,0.1
5,NCI-H2009,1.23
6,NCI-H520,0.644
7,PC-3 [JPC-3],0.96
8,LCLC-103H,0.717
9,NCI-H2228,0.931
10,EMC-BAC-2,1.04
11,NCI-H2087,1.22
12,Calu-6,0.923
13,HCC-366,0.975
14,NCI-H1666,1.03
15,NCI-H650,1.05
16,LK-2,1.36
17,NCI-H2126,1.16
18,SK-MES-1,0.881
19,H3255,0.897
20,COR-L23,1.02
21,IA-LM,1.14
22,A549,1.05
23,NCI-H1299,1.08
24,NCI-H661,1.09
25,NCI-H1563,0.988
26,NCI-H358,0.67
27,NCI-H727,0.777

# Same assay, conditions: first compound 2.53 µM
row,Cell Line,relative viability
1,NCI-H2342,1.21
2,NCI-H1623,0.83
3,PC-14,0.95
4,NCI-H1650,1.32
5,EBC-1,0.0973
6,NCI-H1703,0.403
7,NCI-H2009,1.24
8,NCI-H1993,0.796
9,NCI-H520,0.817
10,PC-3 [JPC-3],1.05
11,LCLC-103H,0.627
12,NCI-H647,1.17
13,NCI-H2228,0.976
14,EMC-BAC-2,1.09
15,NCI-H2087,1.14
16,Calu-6,0.839
17,HCC-366,0.9

row,Cell Line,relative viability
1,NCI-H1666,0.938
2,NCI-H650,1.07
3,LK-2,1.2
4,NCI-H2126,1.13
5,SK-MES-1,1
6,H3255,0.797
7,COR-L23,0.986
8,IA-LM,1.2
9,A549,0.522
10,SW 900,1.09
11,NCI-H1299,1.1
12,NCI-H661,1.11
13,NCI-H1563,0.957
14,ABC-1,1.41
15,NCI-H358,0.662
16,NCI-H727,1.13

# Same assay, conditions: first compound 8 µM
row,Cell Line,relative viability
1,NCI-H2342,1
2,NCI-H1623,0.801
3,PC-14,0.792
4,NCI-H1650,0.987
5,EBC-1,0.121
6,NCI-H1703,0.401
7,NCI-H2009,1.19
8,NCI-H1993,0.784
9,NCI-H520,0.704
10,PC-3 [JPC-3],0.936
11,LCLC-103H,0.71
12,NCI-H647,1.13
13,NCI-H2228,0.905
14,EMC-BAC-2,0.935
15,NCI-H2087,1.22
16,Calu-6,0.823
17,HCC-366,0.867

row,Cell Line,relative viability
1,NCI-H1666,0.92
2,NCI-H650,0.962
3,LK-2,1.44
4,NCI-H2126,1.2
5,SK-MES-1,0.804
6,H3255,0.792
7,COR-L23,0.962
8,IA-LM,0.99
9,A549,0.885
10,SW 900,0.952
11,NCI-H1299,1.01
12,NCI-H661,1.06
13,NCI-H1563,0.931
14,ABC-1,1.07
15,NCI-H358,0.58
16,NCI-H727,0.877

# Compound: CC(C)=CC[C@@H](O)C1=CC(=O)c2c(O)ccc(O)c2C1=O [Shikonin] + CC1(C)CCC(c2ccc(Cl)cc2)=C(CN2CCN(c3ccc(C(=O)NS(=O)(=O)c4ccc(N[C@H](CCN5CCOCC5)CSc5ccccc5)c(S(=O)(=O)C(F)(F)F)c4)cc3)CC2)C1 [Navitoclax] (partner 0.5 µM)
# Test: as above
# Details: first compound 0.01 µM
# In short: as §1
row,Cell Line,relative viability
1,PC-14,1.05
2,NCI-H1650,1.3
3,EBC-1,0.366
4,NCI-H1703,1.12
5,NCI-H2009,1.23
6,PC-3 [JPC-3],0.758
7,NCI-H647,0.991
8,NCI-H2228,0.799
9,EMC-BAC-2,1.13
10,NCI-H2087,1.01
11,Calu-6,1.1
12,HCC-366,1.08
13,NCI-H1666,0.923
14,LK-2,0.913
15,NCI-H2126,0.84
16,SK-MES-1,1.25
17,H3255,0.454
18,COR-L23,1.13
19,IA-LM,0.879
20,HCC-44,1.04
21,A549,1.46
22,NCI-H1299,1.03
23,NCI-H1792,0.607
24,NCI-H727,0.405

# Same assay, conditions: first compound 0.1 µM
row,Cell Line,relative viability
1,PC-14,1.1
2,NCI-H1650,1.24
3,EBC-1,0.392
4,NCI-H1703,1.08
5,NCI-H2009,1.16
6,NCI-H1993,0.814
7,NCI-H520,1.1
8,PC-3 [JPC-3],0.848
9,NCI-H647,0.886
10,NCI-H2228,0.846
11,EMC-BAC-2,1.1
12,NCI-H2087,1.15
13,Calu-6,1.11
14,HCC-366,1.06
15,NCI-H1666,1.02
16,LK-2,0.866
17,NCI-H2126,0.86
18,SK-MES-1,1.19
19,H3255,0.695
20,COR-L23,1.26
21,IA-LM,0.858
22,HCC-44,0.909
23,A549,1.49
24,NCI-H1299,1.09
25,NCI-H1792,0.639
26,NCI-H727,0.502

# Same assay, conditions: first compound 0.3162 µM
row,Cell Line,relative viability
1,PC-14,1.23
2,NCI-H1650,1.05
3,EBC-1,0.352
4,NCI-H1703,0.991
5,NCI-H2009,1.19
6,NCI-H1993,0.936
7,NCI-H520,1.19
8,PC-3 [JPC-3],0.884
9,NCI-H647,1.25
10,NCI-H2228,0.911
11,EMC-BAC-2,1.28
12,NCI-H2087,1.01
13,Calu-6,0.981
14,HCC-366,1.09
15,NCI-H1666,0.962
16,LK-2,1.03
17,NCI-H2126,0.879
18,SK-MES-1,1.29
19,H3255,0.519
20,COR-L23,1.05
21,IA-LM,0.796
22,HCC-44,1.1
23,A549,1.35
24,NCI-H1299,1.06
25,NCI-H1792,0.58
26,NCI-H727,0.366

# Same assay, conditions: first compound 1 µM
row,Cell Line,relative viability
1,PC-14,1.02
2,NCI-H1650,1.07
3,EBC-1,0.254
4,NCI-H1703,0.19
5,NCI-H2009,1.05
6,NCI-H1993,1.01
7,NCI-H520,1
8,PC-3 [JPC-3],0.786
9,NCI-H647,1.02
10,NCI-H2228,0.895
11,EMC-BAC-2,1.22
12,NCI-H2087,0.917
13,Calu-6,0.448
14,HCC-366,1.08
15,NCI-H1666,0.723
16,LK-2,0.852
17,NCI-H2126,0.864
18,SK-MES-1,1.29
19,H3255,0.584
20,COR-L23,0.908
21,IA-LM,0.654
22,HCC-44,1.07
23,A549,1.17
24,NCI-H1299,1.05
25,NCI-H1792,0.778
26,NCI-H727,0.295
